{"source": "patent US20030153514A1", "about": "“Remedies for cancer” (priority 2000, published 2003)", "origin": "cited, not measured here", "tested_on": "NKT cells (Vα24Vβ11)", "details": "cancer-bearing mice", "data": [{"smiles": "CCCCCCCCCCCCCCCCCCCCCCCCCC(=O)N[C@@H](CO[C@H]1O[C@H](CO)[C@H](O)[C@H](O)[C@H]1O)[C@H](O)[C@H](O)CCCCCCCCCCCCCC", "note": "[α-galactosylceramide]", "values": [{"measurement": "NKT cells", "result": "activated"}, {"measurement": "disappearance of cancer", "result": "not observed"}, {"measurement": "metastasis", "result": "suppressed"}]}]}
